# The source made the active and inactive calls.
# Key:
# [1] = reduced cellular PGC1a acetyl-lysine signal – cell-based, cherry-picked samples, dose response (AID 720514); format: functional;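 also: potency may reflect raised or lowered acetylation signal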
# Prothrombin = Prothrombin (Homo sapiens, UniProt P00734); test: Thrombin 1536 HTS Dose Response Confirmation. [Related pubchem assays: 1046 (Thrombin 1536 HTS; hits were confirmed in this assay)]; format: functional
# [2] = molecular target: Peroxisome proliferator-activated receptor gamma/Nuclear receptor coactivator 2 (Homo sapiens, UniProt P37231); test: (§1) TR-FRET dose response biochemical High Throughput Screening assay for agonists of the steroid receptor coactivator 2 (SRC-2) recruitment by the peroxisome proliferator-activated receptor gamma (PPAR gamma): non-selective agonists. [Related pubchem assays: 1297, 1032 ]; format: functional
# [3] = molecular target: Peroxisome proliferator-activated receptor gamma/Nuclear receptor coactivator 1 (Homo sapiens, UniProt P37231); test: as §1, with “1 (SRC-1)” for “2 (SRC-2)”, “assays (depositor defined):AID1300, AID1808, AID504735, AID631]” for “assays: 1297, 1032 ]”; format: protein assay
# [4] = molecular target: Peroxisome proliferator-activated receptor gamma/Nuclear receptor coactivator 3 (Homo sapiens, UniProt P37231); test: as §1, with “3 (SRC-3)” for “2 (SRC-2)”, “1301 (Confirmation screen.), 1048 (Primary screen.)]” for “1297, 1032 ]”; format: functional
# [5] = viability loss in THP-1 monocytes – THP-1 cells, cytotoxicity control for Vif-APOBEC3G degradation inhibitor project, dose response (AID 1117359); format: functional; settings: THP-1
# [6] = molecular target: FAD-linked sulfhydryl oxidase ALR (Homo sapiens, UniProt P55789); test: ALR-catalysed DTT oxidation blockers – biochemical, H2O2 detection, luminescence, cherry-pick, dose response (AID 493248)
# [7] = molecular target: T1, Rac GTPase-activating protein 1 (Homo sapiens, UniProt Q9H0H5); test: blockers of MgcRacGAP-driven Rac1 GTP hydrolysis – biochemical, ADP Hunter fluorescence, primary and confirmatory, confirmation (AID 624330); format: functional
# T1 sequence (Q9H0H5 whole entry): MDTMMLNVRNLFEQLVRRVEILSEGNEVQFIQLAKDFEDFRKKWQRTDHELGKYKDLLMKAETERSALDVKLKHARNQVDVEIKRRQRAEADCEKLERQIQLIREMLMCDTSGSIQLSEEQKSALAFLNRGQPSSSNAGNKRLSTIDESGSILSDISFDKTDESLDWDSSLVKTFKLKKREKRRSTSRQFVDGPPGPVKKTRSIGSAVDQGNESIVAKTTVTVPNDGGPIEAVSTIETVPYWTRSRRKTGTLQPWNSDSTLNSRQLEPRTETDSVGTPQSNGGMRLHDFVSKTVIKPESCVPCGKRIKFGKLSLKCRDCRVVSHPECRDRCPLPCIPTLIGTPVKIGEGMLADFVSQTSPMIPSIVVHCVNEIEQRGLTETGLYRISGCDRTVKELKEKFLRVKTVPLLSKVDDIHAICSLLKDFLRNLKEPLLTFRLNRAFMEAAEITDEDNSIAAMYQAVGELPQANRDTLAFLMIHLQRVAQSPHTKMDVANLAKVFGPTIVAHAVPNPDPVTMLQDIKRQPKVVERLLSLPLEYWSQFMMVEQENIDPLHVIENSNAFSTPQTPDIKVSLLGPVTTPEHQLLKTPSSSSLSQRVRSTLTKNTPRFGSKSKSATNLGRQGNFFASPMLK
# Large T antigen = Large T antigen (Simian virus 40, UniProt P03070); format: functional, Betapolyomavirus macacae;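 also: Confirmatory-stage PubChem screen for compounds that inhibit SV40 T antigen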
# Paired box protein Pax-8 = Paired box protein Pax-8 (Homo sapiens, UniProt Q06710); test: PAX8 transcriptional activity inhibition in RMG-I – RMG-I cells, luciferase, cherry-pick, dose response (AID 687027); format: functional, cell-based;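 also: luciferase reporter driven by Pax8 target thyroperoxidase promoter measured by SteadyGlo luminescence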
# [8] = molecular target: T2, Histone-lysine N-methyltransferase NSD2 (Homo sapiens, UniProt O96028); format: biochemical
# T2 sequence (O96028 whole entry): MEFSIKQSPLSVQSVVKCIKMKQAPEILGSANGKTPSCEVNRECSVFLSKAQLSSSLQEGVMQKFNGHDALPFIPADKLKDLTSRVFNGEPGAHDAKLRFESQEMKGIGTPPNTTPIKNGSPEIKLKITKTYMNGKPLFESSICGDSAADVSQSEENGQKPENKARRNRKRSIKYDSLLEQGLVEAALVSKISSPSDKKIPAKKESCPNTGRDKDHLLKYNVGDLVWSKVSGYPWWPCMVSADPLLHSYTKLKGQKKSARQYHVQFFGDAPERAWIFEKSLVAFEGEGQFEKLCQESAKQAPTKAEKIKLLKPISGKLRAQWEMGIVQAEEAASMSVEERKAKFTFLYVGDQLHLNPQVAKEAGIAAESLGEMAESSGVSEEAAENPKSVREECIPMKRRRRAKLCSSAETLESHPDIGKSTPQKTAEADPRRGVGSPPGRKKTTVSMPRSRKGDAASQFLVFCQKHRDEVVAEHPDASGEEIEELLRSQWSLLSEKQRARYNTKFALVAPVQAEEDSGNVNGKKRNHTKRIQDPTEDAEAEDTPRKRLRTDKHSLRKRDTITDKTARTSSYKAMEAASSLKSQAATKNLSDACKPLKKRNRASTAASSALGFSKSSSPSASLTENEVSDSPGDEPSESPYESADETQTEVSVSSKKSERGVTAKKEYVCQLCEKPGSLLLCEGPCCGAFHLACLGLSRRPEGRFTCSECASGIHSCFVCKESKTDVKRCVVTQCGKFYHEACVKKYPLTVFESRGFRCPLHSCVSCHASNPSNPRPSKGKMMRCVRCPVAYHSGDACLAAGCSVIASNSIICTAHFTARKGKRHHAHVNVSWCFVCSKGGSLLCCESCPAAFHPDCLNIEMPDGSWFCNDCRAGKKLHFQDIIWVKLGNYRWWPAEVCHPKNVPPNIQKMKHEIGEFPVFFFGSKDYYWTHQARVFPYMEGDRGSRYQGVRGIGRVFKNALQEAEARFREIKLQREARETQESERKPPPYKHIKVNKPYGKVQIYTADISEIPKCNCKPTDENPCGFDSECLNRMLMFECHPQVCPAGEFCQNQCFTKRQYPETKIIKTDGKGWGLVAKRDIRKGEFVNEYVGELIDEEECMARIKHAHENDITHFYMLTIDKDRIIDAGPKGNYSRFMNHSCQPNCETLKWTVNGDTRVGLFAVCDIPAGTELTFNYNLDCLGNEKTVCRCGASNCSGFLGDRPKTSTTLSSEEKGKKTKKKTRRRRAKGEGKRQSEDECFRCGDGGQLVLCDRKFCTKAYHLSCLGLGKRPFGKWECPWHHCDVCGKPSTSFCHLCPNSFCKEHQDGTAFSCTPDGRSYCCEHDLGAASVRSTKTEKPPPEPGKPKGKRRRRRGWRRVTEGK
# H4 = test: Luminescence Cell-Based Dose Response HTS to Identify Activators of 5'UTR Stem-Loop Driven Prion Protein mRNA Translation in H4 Neuroglioblastoma Cells. [Related pubchem assays: 1829 (Project Summary), 1814 (Primary HTS)]; format: functional; settings: Homo sapiens
# [9] = Luminescence Cell-Based Dose Response HTS to Identify Activators of Luciferase Translation or Activity in H4 […] Cells. [Related pubchem assays: 1829 (Project Summary), 1814 (Primary HTS)]; format: functional
# [10] = HEK-293T viability loss after treatment – luminescence, T-cell screen hits, cytotoxicity control for TCR NF-kB inhibitor project, dose response (AID 489026); format: functional, cell-based;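 also: cells exposed to compound about 14 hours before the viability readout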
# Leucine aminopeptidase = molecular target: T3, Leucine aminopeptidase (Plasmodium falciparum 3D7, UniProt Q8IL11); test: P. falciparum M17LAP inhibitors, primary screen, biochemical, fluorogenic H-Leu-NHMec substrate, 1536-well (AID 1619); format: functional
# T3 sequence (Q8IL11 whole entry): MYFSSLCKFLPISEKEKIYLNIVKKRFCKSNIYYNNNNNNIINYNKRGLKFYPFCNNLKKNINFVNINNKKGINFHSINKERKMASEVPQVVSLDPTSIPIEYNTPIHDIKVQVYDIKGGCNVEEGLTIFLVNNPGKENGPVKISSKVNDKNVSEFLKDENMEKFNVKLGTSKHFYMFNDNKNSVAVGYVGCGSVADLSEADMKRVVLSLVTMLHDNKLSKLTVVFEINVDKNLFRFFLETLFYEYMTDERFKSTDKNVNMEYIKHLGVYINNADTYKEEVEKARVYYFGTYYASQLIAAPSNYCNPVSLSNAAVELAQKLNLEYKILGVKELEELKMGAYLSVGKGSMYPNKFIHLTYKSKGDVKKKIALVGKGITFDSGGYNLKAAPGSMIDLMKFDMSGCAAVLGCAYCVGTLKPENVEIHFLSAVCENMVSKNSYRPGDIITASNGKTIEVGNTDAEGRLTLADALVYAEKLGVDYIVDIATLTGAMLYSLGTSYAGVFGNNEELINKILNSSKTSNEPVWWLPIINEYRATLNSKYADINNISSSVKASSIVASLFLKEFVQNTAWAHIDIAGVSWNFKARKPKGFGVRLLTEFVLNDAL
# [11] = molecular target: Eukaryotic translation initiation factor 4E (Mus musculus, UniProt P63073); test: blockers of eIF4G binding by eIF4E – biochemical, TR-FRET, dose response (AID 855); format: functional;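 also: potency for disrupting eIF4E binding to eIF4GI seen as loss of FRET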
# [12] = molecular target: Induced myeloid leukemia cell differentiation protein Mcl-1 (Homo sapiens, UniProt Q07820); format: functional
# Streptococcus = test: GAS UMAA2166 growth inhibition – luminescence, BacTiterGlo, counter-screen for streptokinase expression inhibitor project, dose response (AID 1915); format: functional, organism-based;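 also: potency for reduction of bacterial viability or growth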
# [13] = test system: Streptococcus sp. 'group A'; test: Streptococcus pyogenes SK(-)GAS viability under kanamycin – luminescence, BacTiterGlo, confirmation, counter-screen for streptokinase expression inhibitor project, dose response (AID 1900); format: functional, organism-based
# Streptokinase A = molecular target: T4, Streptokinase A (Streptococcus pyogenes serotype M1, UniProt P10520); test: viability-normalized secreted streptokinase activity reduction – plasminogen activation absorbance, OD405, dose response (AID 1914); format: functional, Streptococcus pyogenes M1 GAS;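 also: secreted streptokinase activity via plasminogen activation per viability signal from cell pellet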
# T4 sequence (P10520 whole entry): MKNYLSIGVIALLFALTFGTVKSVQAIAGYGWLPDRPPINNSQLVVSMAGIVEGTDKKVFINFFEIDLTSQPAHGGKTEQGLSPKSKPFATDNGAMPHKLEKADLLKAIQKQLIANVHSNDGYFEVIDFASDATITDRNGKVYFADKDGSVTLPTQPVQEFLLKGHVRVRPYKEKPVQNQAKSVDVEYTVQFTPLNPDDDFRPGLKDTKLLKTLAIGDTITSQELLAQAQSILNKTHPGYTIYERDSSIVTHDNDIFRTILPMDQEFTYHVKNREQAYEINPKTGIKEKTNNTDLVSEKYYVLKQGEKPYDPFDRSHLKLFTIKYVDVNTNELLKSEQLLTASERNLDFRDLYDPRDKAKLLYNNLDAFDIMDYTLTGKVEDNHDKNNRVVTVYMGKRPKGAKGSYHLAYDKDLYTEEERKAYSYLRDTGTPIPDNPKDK
# Beta-galactosidase = Beta-galactosidase (Escherichia coli, UniProt Q8VNN2); test: detection-enzyme interference by beta-gal modulators – biochemical, E. coli enzyme, set 3, artefact control for CCR6 antagonist project, dose response (AID 504712); format: functional
# cells = format: functional
# [14] = THP-1 cell cytotoxicity, dose response, cytotoxicity control for non-replicating M. tuberculosis project (AID 489025); format: functional
# [15] = toxicity to human hepatoma HepG2 cells – cell-based, cherry-picked samples, cytotoxicity control, dose response (AID 1159577); format: functional
# [16] = P. falciparum Dd2 growth inhibitors, dose response, SYBR Green, cherry-picked samples (AID 1159567); format: functional, cell-based
# Eukaryotic translation initiation factor 4E, sequence (P63073 whole entry): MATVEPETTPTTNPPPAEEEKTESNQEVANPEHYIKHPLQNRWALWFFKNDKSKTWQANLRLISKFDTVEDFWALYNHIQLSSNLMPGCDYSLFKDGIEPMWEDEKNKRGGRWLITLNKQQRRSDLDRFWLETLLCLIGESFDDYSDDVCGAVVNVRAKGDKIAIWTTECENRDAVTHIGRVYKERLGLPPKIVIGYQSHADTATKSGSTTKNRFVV
# Large T antigen, sequence (P03070 whole entry): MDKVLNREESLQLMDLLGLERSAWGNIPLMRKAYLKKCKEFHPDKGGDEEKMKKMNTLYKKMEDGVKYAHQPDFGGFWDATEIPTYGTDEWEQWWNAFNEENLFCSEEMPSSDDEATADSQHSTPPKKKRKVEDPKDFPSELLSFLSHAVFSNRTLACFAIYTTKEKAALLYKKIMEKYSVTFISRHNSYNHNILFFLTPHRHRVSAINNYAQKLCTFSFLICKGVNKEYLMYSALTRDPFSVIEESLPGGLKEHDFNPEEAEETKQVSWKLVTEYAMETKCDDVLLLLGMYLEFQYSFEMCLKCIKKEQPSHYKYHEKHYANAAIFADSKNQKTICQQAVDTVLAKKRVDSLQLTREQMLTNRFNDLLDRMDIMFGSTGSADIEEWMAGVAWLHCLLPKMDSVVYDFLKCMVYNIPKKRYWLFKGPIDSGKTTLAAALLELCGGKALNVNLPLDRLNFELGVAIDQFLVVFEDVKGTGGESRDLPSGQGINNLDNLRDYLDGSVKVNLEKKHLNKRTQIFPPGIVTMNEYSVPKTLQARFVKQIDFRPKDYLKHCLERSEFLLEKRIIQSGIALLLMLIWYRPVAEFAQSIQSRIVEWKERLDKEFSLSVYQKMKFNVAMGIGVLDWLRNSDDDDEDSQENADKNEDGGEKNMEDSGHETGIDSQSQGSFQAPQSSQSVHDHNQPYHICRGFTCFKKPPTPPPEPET
# FAD-linked sulfhydryl oxidase ALR, sequence (P55789 whole entry): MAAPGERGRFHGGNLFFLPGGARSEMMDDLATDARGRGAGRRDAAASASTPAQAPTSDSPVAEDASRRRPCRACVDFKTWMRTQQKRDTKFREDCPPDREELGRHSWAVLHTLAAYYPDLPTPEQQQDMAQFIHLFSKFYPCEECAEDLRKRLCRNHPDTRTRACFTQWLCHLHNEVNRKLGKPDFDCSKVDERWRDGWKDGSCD
# Peroxisome proliferator-activated receptor gamma/Nuclear receptor coactivator 2, sequence (P37231 whole entry): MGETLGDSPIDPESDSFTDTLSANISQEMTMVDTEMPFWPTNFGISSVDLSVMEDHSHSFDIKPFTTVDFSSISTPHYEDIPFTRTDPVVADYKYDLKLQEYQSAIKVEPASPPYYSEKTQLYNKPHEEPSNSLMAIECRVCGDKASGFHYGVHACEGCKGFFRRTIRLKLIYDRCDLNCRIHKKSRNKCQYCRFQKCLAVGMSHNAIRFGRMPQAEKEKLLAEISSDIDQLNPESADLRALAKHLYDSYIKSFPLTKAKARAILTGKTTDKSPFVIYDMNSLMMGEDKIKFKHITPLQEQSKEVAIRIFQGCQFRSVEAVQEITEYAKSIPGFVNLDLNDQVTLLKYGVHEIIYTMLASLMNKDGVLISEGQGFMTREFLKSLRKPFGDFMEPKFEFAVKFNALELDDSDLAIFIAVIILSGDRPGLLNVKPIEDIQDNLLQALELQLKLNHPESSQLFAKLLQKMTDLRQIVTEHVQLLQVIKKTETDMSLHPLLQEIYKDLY
# Peroxisome proliferator-activated receptor gamma/Nuclear receptor coactivator 2, sequence (Q15596 whole entry, further chain): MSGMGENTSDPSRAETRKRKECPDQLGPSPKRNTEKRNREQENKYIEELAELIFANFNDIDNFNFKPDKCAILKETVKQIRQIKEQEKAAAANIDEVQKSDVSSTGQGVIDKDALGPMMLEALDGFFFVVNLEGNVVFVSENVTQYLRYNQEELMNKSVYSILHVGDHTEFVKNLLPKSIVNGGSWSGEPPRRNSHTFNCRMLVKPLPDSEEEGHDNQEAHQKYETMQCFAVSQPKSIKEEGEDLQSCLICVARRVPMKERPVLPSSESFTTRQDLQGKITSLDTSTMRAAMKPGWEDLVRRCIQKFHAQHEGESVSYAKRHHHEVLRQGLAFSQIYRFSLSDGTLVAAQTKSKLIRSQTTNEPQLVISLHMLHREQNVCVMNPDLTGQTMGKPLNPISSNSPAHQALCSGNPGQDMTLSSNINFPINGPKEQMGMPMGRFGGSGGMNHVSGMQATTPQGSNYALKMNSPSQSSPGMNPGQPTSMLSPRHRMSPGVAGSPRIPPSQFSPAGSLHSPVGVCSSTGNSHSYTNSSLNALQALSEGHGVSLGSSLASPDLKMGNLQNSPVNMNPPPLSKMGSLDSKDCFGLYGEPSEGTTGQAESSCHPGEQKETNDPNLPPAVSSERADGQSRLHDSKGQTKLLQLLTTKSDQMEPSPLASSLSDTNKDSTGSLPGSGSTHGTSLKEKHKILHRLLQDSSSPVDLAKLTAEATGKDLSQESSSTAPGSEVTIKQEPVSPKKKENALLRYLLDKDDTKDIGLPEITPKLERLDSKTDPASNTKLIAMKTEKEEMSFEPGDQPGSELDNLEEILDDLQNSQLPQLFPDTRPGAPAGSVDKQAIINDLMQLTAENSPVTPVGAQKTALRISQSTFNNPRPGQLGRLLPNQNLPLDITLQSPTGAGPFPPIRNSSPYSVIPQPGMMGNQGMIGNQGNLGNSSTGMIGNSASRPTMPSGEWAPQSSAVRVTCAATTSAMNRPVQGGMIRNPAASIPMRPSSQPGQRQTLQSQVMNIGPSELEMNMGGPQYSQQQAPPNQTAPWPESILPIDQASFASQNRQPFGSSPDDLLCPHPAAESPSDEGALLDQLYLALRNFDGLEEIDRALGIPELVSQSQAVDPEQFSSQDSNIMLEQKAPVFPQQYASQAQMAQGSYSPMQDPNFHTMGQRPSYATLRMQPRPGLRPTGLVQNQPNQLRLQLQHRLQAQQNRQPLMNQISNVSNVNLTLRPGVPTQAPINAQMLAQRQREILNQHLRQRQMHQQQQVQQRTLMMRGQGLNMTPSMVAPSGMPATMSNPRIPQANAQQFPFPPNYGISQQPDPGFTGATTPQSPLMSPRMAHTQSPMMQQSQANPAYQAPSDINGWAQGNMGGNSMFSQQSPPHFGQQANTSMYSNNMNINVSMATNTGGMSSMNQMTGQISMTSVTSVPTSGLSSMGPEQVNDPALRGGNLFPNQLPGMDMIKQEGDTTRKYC
# Peroxisome proliferator-activated receptor gamma/Nuclear receptor coactivator 3, sequence (P37231 whole entry): as the sequence (P37231 whole entry) above
# Peroxisome proliferator-activated receptor gamma/Nuclear receptor coactivator 3, sequence (Q9Y6Q9 whole entry, further chain): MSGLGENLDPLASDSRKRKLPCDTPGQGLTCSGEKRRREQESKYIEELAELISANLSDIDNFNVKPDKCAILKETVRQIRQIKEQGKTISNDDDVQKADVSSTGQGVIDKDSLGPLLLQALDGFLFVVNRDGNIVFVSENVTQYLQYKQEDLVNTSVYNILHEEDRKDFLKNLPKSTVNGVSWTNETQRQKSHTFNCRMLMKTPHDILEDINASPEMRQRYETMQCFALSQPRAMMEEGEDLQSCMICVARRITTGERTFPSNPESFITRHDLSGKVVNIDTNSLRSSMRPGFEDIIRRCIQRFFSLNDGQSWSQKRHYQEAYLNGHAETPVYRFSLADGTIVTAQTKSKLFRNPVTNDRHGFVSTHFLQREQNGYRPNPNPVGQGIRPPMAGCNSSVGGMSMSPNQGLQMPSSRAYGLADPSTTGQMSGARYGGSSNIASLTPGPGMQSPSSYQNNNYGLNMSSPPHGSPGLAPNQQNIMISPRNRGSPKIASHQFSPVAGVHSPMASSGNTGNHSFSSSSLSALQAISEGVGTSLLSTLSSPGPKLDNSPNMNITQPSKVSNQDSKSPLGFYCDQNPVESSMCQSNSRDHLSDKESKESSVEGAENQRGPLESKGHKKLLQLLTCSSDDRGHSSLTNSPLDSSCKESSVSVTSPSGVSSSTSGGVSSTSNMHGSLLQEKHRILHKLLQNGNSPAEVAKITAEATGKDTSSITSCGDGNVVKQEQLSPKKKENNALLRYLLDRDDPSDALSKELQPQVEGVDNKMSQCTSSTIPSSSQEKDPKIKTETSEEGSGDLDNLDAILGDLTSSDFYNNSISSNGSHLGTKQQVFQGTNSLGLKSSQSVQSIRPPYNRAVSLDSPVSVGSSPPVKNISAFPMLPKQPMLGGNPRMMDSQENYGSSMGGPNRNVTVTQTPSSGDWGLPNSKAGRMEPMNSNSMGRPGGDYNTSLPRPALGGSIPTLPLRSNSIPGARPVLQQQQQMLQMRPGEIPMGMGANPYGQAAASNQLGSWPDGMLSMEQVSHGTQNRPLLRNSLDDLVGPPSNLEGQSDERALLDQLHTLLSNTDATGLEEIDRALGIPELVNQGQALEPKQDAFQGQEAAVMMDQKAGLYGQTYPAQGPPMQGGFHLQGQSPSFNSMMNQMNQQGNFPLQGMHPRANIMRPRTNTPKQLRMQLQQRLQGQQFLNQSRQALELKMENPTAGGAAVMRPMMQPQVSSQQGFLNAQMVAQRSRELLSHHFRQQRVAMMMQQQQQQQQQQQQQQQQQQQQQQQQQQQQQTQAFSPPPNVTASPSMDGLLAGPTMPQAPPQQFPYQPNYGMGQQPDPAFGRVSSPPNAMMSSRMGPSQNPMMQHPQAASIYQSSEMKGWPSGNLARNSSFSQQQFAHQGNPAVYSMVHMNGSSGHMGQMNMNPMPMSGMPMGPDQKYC
smiles,measurement,setting,value
O=C1c2ccccc2-[n+]2ccc3c([nH]c4ccccc43)c21 [FASCAPLYSIN],AC50,[1],0.358 µM (active)
CCN(CC)S(=O)(=O)c1ccc2c(c1)c(=O)c(C(=O)NCc1ccc3c(c1)OCO3)cn2C,IC50,Prothrombin,0.852 µM (active)
CN(CCCNC(=O)CSc1cc(=O)n(C)c2cc(Cl)ccc12)Cc1ccccc1,EC50,[2],> 79.4 µM (not active)
same,EC50,[3],> 79.4 µM (inactive)
same,EC50,[4],> 79.4 µM (not active)
CC(C(=O)NCC1CCCCC1)N(C)Cc1ccc(Br)cc1 (stereo not drawn),CC50,[5],> 40 µM (active)
O=C1CS/C(=N\c2ccc(O)cc2)N1c1ccc(O)cc1,AC50,[6],3.26 µM (active)
same,IC50,[7],51.9 µM (active)
same,IC50,Large T antigen,11.4 µM (active)
C[C@H](CO)N1C[C@H](C)[C@H](CN(C)C(=O)NC2CCCCC2)Oc2cc(C#Cc3cccc(F)c3)ccc2S1(=O)=O,AC50,[1],14.1 µM (active)
same,AC50,Paired box protein Pax-8,6.2 µM (active)
CNCCCCOc1ccccc1-c1ccccc1,AC50,[8],> 20 µM (inactive)
COc1ccc2c(c1OC)C(=O)N(c1ccc(O)cc1)C2,IC50,Large T antigen,> 100 µM (active)
CCCCn1nnc(N(C(=O)c2cccs2)C(=O)c2cccs2)n1,EC50,H4,> 120 µM (not active)
same,EC50,[9],12.6 µM (active)
same,IC50,Prothrombin,0.88 µM (active)
COc1ccccc1-c1nnc2n1N=C(c1ccc(O)c(O)c1)CS2,AC50,[6],1.97 µM (active)
same,IC50,[10],> 80 µM (inactive)
same,IC50,Leucine aminopeptidase,39.2 µM (active)
same,AC50,[8],12.4 µM (active)
Oc1n[nH]c(CSCc2ccccc2Cl)n1,IC50,[11],> 64 µM (inactive)
Cc1ccc(CN(Cc2ccccc2)C(S)=NCC(=O)N2CCC3(CC2)OCCO3)o1,IC50,[11],50 µM (inactive)
N#Cc1cc(-c2ccccc2)nn1-c1ccccc1,IC50,[11],> 64 µM (inactive)
same,IC50,[12],1.44 µM (active)
Cc1cc(C)c(C)c(OCCCOc2cccc3cccnc23)c1,CC50,[5],15.4 µM (active)
same,EC50,Streptococcus,39.4 µM (active)
same,EC50,[13],13.1 µM (active)
same,EC50,Streptokinase A,> 150 µM (not active)
O=C(Cc1ccccc1)n1nc(-c2ccccc2)nc1NCc1ccco1,IC50,Prothrombin,0.1 µM (active)
COc1ccc(-c2cc(C)nc(SCC(=O)c3cccc([N+](=O)[O-])c3)n2)cc1,CC50,[5],> 40 µM (active)
CCOc1cccc(C(=O)NC(=S)Nc2cccc(C)c2)c1,IC50,Beta-galactosidase,> 66.6 µM (inactive)
O=C(Cn1nc(C(F)F)cc1C(F)F)NNC(=S)Nc1ccc(F)cc1,IC50,Prothrombin,> 50 µM (not active)
c1ccc(CNCCC(Cc2ccccc2)c2ccco2)cc1 (stereo not drawn),IC50,cells,> 50 µM (active)
same,CC50,[14],> 40 µM (active)
OC[C@@H]1[C@H](c2ccc(C#CC3CCCC3)cc2)[C@H]2CN(CCC(F)(F)F)CCCCN12,AC50,[15],9.12 µM (active)
same,AC50,[1],10.4 µM (active)
same,AC50,[16],1.43 µM (active)
CCN(CC)CCNC(=O)Cc1nn(Cc2ccccc2)c(=O)c2ccccc12,AC50,[8],> 20 µM (inactive)

# Source: ChEMBL document CHEMBL1201862, “PubChem BioAssay data set” (2004)
